The source of these data is publication PMC9220127, “Reactive Human Plasma Glutathione Peroxidase Mutant with Diselenide Bond Succeeds in Tetramer Formation” (Antioxidants, 2022).

This assay concerns the target T1, Sec−hGPx3 (human plasma glutathione peroxidase, GPx3) (Homo sapiens, UniProt P22352).
T1 construct: mature form without signal peptide (nucleotides 1-72 removed), Sec49 inserted at UAG with tRNA-UTuT6, E. coli C321.ΔA.exp, Ni-NTA purified, unglycosylated, about 25 kDa; starts QEKSKMDCHGGIS
T1 sequence (P22352 25-226): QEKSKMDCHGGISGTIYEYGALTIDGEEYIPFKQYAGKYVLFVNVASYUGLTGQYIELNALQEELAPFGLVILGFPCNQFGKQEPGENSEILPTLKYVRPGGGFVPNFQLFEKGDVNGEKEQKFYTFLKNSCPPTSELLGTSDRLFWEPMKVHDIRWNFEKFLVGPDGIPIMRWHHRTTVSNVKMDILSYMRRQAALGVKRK
Briefly: glutathione reductase-coupled NADPH oxidation at […] nm. It is filed as biochemical. The note with it: 60 μM t-BuOOH, 1 mM GSH, 0.25 mM NADPH, 1 mM EDTA, pH 7.4, 37 °C; non-tetrameric recombinant enzyme.

Consider `CC(C)(C)OO` [t−BuOOH], for which the “glutathione reductase-coupled NADPH oxidation at 340 nm” value is reported as “GR−coupled assay with H2O2 or t−BuOOH as substrates (Figure 1B), which revealed significant GPx activity”.
